{"source": "patent US9173875B2", "about": "“Treatment for nicotine-induced lung disease using peroxisome proliferator-activated receptor gamma agonists” (Los Angeles Biomedical Research Institute at Harbor-UCLA …, priority 2006, dated 2015)", "key": {"WI38 cells [1]": {"system": "WI38 cells", "assay": "Triglyceride uptake assay ([3H]triolein) in WI38 cells", "format": "cell-based, human", "procedure": "The human embryonic cell line WI38 was obtained from American Type Culture Collection (Rockville, Md.). Cells were grown in MEM plus 10% FBS at 37° C. in six-well plates, four-well slides, and 60- and 100-mm culture dishes as needed.\nThe method used to quantitate triglyceride uptake by fetal rat lung fibroblasts has been described previously (Torday et al. (1995) Biochim Biophys Acta 1254: 198-206). Briefly, culture medium was replaced with DMEM containing 20% adult rat serum mixed with [3H]triolein (5 μCi/ml). The cells were incubated at 37° C. in 5% CO2+balance air for 4 h. At the termination of the incubation, the medium was decanted, the cells were rinsed twice with 1 ml of ice-cold MEM, and the cells were removed from the culture plate after a 5- to 10-min incubation with 2 ml of a 0.05% trypsin solution. An aliquot of the cell suspension was taken for protein assay (Bradford (1976) Anal Biochem 72: 248-254), and the remaining cell suspension was extracted for neutral lipid content."}, "PTHrP receptor": {"target": "T1, PTHrP receptor (Homo sapiens, UniProt Q03431)", "T1 construct": "10-12 μg membrane protein; endogenous in cells; host or cells: WI38 human embryonic lung fibroblasts (inferred; the assay text only says membrane protein)", "T1 sequence (Q03431 27-593)": "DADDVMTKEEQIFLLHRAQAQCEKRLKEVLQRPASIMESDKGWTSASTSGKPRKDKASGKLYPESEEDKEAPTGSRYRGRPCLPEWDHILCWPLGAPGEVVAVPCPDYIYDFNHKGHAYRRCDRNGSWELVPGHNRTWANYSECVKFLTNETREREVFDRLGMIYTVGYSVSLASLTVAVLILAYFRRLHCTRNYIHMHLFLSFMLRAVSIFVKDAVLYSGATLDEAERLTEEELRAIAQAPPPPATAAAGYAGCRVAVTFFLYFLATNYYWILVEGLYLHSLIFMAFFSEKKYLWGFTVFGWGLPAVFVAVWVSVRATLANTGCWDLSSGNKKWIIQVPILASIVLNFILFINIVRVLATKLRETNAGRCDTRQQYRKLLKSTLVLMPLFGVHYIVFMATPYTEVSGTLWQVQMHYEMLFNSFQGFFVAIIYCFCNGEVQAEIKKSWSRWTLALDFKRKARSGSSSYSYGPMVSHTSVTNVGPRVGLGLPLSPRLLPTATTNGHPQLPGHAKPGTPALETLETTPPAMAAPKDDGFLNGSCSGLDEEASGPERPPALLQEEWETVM", "assay": "PTHrP receptor binding assay", "details": "nicotine 1×10^−6 M", "procedure": "The receptor binding assay was carried out as previously described (Torday and Rehan (2002) Am. J. Physiol. Lung Cell Mol. Physiol. 283: L130-L135; Torday and Rehan (2003) Cell Biochem Biophys 37: 235-246). The assay mixture, in a total volume of 0.1 ml, contained 50 mM Tris.HCl (pH 7.4), 2 mM dithiothreitol, 10 mM EDTA, 10 μg/ml each of protease inhibitors (leupeptin, pepstatin, antipain, and aprotinin), 0.5 mM phenylmethylsulfonyl fluoride, 10 mg/ml BSA, 5 mM MgCl2, […] [1251]-Tyr34-PTHrP-(1-34) (specific activity 1,064 Ci/mmol), 10-12 μg membrane protein, and 1×10-10 to 1×10^−6 M PTHrP-(1-34). Triplicate samples were incubated for 30 min at 30° C. Reactions were stopped by the addition of 0.1 ml of homogenization buffer containing 20 mg/ml of BSA and placed in ice-cold water for 30 min, followed by centrifugation at 15,000 g for 1 min. The supernatant was aspirated, and the pellet was counted for radioactive content with a gamma counter (model 1470; Wallace, Gaithersburg, Md.). Nonspecific binding was determined in the presence of 1 μM nonradioactive PTHrP-(1-34). Specific binding of [^125I]-Tyr34-PTHrP-(1-34) was calculated as total binding minus nonspecific binding and expressed as femtomoles per milligrams of protein. […] The effect of nicotine (1×10^−6 M) on PTHrP receptor binding was examined without and with the nACh receptor antagonists D-tubocurarine, α-bungarotoxin, or mecamylamine (1×10^−9 to 1×10^−6 M)."}, "[2]": {"system": "fetal alveolar type II (ATII) cells", "assay": "In vivo ATII cell proliferation assay (PCNA and SP-C double labeling) after in utero nicotine", "design": "species or system Sprague-Dawley rat"}, "fetal rat lung explants": {"system": "fetal rat lung explants", "assay": "In vitro ATII cell proliferation in lung explants (PCNA and SP-C labeling)", "format": "cell-based", "details": "nicotine 24 h; P<0.05, n=4", "description": "Explants derived from three to five litters of rats were used for each experiment during the course of the studies. Lungs were harvested from fetal rats under sterile conditions. The lung tissue was chopped into −1-mm cubes and incubated in 0.5 ml of Waymouth's MB-252/1 medium containing penicillin (100 U/ml)-streptomycin (100 U/ml) and Fungizone (2.5 μg/ml) in six-well plates while rocking on an oscillating platform (3 cycles/min) in 5% CO2-95% air at 37° C. The explants were allowed to attach for 1-2 h.\nCultured ATII cells or explants were treated with nicotine under various experimental conditions (see below), and cell proliferation was determined by Cell Proliferation Assay (Promega) or dual PCNA and SP-C labeling, respectively (see above)."}, "ATII cells [3]": {"system": "ATII cells", "assay": "Phospholipid synthesis ([3H]choline incorporation into saturated phosphatidylcholine) by ATII cells after in utero nicotine", "format": "in vivo, Sprague-Dawley rat", "details": "nicotine 1 mg/kg in utero; vs control, P<0.05, n=6", "description": "(§1) Incorporation of [methyl-3H]choline chloride (NEN Dupont) into saturated phosphatidylcholine was determined in monolayers of cultured explants and ATII cells. […] After incubation, explants and cells were washed three times with ice-cold PBS. The explants and the scraped cells were thoroughly homogenized, and the cellular lipids were extracted with chloroform-methanol (2:1) (Bligh and Dyer (1959) Can. J. Biochem. Physiol., 37: 911-917). The organic phase was dried under a stream of nitrogen at 60° C., resuspended in 0.5 ml of carbon tetrachloride containing 3.5 mg of osmium tetroxide, and left at room temperature for 15 min. The reaction mixture was redried under nitrogen and resuspended in 70 μl of chloroform-methanol (9:1, vol/vol). The lipid extracts were transferred to silica gel plates (Kodak, Rochester, N.Y.) and developed in a chloroform-methanolwater (65:25:4) solvent system. Pure dipalmitoyl phosphatidylcholine was used as the chromatographic standard. The developed plates were stained with bromothymol blue, blotted, and vacuum dried for 5 min at 90° C. Chromatogram spots corresponding to the migration of saturated phosphatidylcholine were scraped from the plates and counted by liquid scintillation spectrometry. The amounts of [methyl^3H]choline chloride incorporated into saturated phosphatidylcholine were expressed as disintegrations per minute per milligram of protein."}, "ATII cells [4]": {"system": "ATII cells", "assay": "Phospholipid synthesis ([3H]choline incorporation) by ATII cells treated in vitro", "format": "cell-based, rat", "details": "nicotine 1×10^−9 M, 24 h, in vitro", "description": "(§2) Isolated ATII cells were cultured in DMEM+10% FBS in 6- and 96-well plates, 100-mm dishes, and T-75 flasks, as needed, and maintained at 37° C. in a humidified incubator containing 5% CO2-95% air. At 80-90% confluence, cells were processed for cell proliferation, differentiation, and metabolic studies (see below).\nas §1"}, "WI38 cells [5]": {"system": "WI38 cells", "assay": "Reversal experiment, immunofluorescence double staining (ADRP or lipid droplets and αSMA) in WI38 cells", "format": "cell-based, human", "description": "Cells were grown in minimum essential medium (MEM) +10% fetal bovine serum at 37° C. in six-well plates, two well slides, and 60-mm and 100-mm culture dishes, as needed. […] Subsequently, the cells were treated with rosiglitazone (RGZ) (1×10^−5 M) (a PPARγ agonist), PTHrP (5×10^−7 M), or DBcAMP (1×10^−5 M) for 7 days, and the expression of PTHrP receptor, PPARγ, ADRP, calponin, and cSMA was determined by Western analysis and immunohistochemistry. Simultaneously, fibroblast function was characterized by measuring their capacity to take up triglycerides. Some experiments were performed in the presence of a specific PPARγ antagonist, GW9662. Medium containing fresh chemicals was added daily, and at the end of the experimental period the cells were processed as needed.\nThe lipogenic and myogenic status of cultured WI38 cells was assessed by simultaneous staining for either lipid droplets or ADRP and αSMA. Lipids were detected by using either oil red 0 staining or ADRP expression (polyclonal anti-ADRP 1:500), and αSMA expression was assessed by using anti-αSMA (1:1000, mouse monoclonal IgG2a, Sigma, catalog No. A2547) primary antibody. […] At the end of the experimental period, slides were fixed in freshly prepared 4% paraformaldehyde. […] Slides were rinsed three times for 5 min and then mounted and visualized under a fluorescence microscope."}, "WI38 cells [6]": {"system": "WI38 cells", "assay": "Reversal experiment, triglyceride (triolein) uptake by WI38 cells", "format": "cell-based, human", "details": "nicotine 7 days"}, "WI38 cells [7]": {"system": "WI38 cells", "details": "7 days, vs control; for change in PTHrP receptor mRNA expression: means±SE"}, "WI38 cells [8]": {"system": "WI38 cells", "description": "Lipogenic and myogenic status of cultured WI38 cells was assessed by simultaneous staining for lipid droplets and -SMA. Lipids were stained using oil red 0 staining, and -SMA expression was assessed by using anti-SMA (cat. no. A2547, 1:1,000, mouse monoclonal IgG2, Sigma) primary antibody. […] At the end of the experimental period, slides were fixed in freshly prepared 4% paraformaldehyde. Fixed slides were washed in PBS, blocked with 3% normal goat serum (Jackson Immunoresearch Lab) in PBS for 30 min at room temperature to block nonspecific binding, and then incubated in primary antibody overnight at 4° C. Secondary biotinylated anti-mouse IgG2 was used at 1:200 dilution for 30 min. The slides were then washed 3× with PBS and with double-distilled water 2× and were then incubated with oil red 0 (Sigma) for 15-30 min. Slides were rinsed 3× for 5 min and then mounted and coverslipped with Vestashield mounting medium with 4′,6′-diamidino-2-phenylindole (Vector Laboratories) visualization under a fluorescence microscope."}, "whole lung tissue": {"system": "whole lung tissue", "details": "nicotine 2 mg/kg i.p. once daily to dam, e6 to e20"}, "ATII cells [9]": {"system": "ATII cells", "details": "nicotine 24 h"}, "ATII cells [10]": {"system": "ATII cells"}, "ATII cells [11]": {"system": "ATII cells", "remark": "listed apart in the source", "description": "as §2\nBriefly, [1,2-^13C2]glucose was purchased with >99% enrichment for the specified carbon positions from Isotech (Miamisburg, Ohio). Lung ATII cells were isolated from embryonic day 20 pups from specified treatment groups and cultured in T-75 tissue culture flasks. […] The [^13C]glucose label is readily incorporated into various metabolites in mammalian cells, including ribonucleic acid (through ribose synthesis), lactate (through glycolysis), glutamate (through the tricarboxylic acid cycle), and palmitate (through the formation of acetyl-CoA). As the molecular weight (atomic mass unit) of these molecules increases on incorporation of the heavier ^13C atoms derived from [1,2,^13C2]glucose, they can be separated and quantitatively analyzed by gas chromatography-mass spectrometry (MS) on the basis of changes in their mass-to-charge ratios (m/z). […]\nFatty acids in the cell culture medium were extracted by saponification of the TRIzol cell extract after removal of the RNA-containing supernatant. […] Palmitate was monitored at ion cluster m/z 270. […]"}, "WI38 cells [12]": {"system": "WI38 cells", "assay": "Reversal of nicotine-induced LIF-to-MYF transdifferentiation in WI38 cells, Western analysis", "description": "The human embryonic cell line WI38 was obtained from the American Type Culture Collection (Rockville, Md.). Cells were grown in minimum essential medium (MEM) +10% fetal bovine serum at 37° C. in six-well plates, two well slides, and 60-mm and 100-mm culture dishes, as needed. […] Subsequently, the cells were treated with rosiglitazone (RGZ) (1×10^−5 M) (a PPARγ agonist), PTHrP (5×10^−7 M), or DBcAMP (1×10^−5 M) for 7 days, and the expression of PTHrP receptor, PPARγ, ADRP, calponin, and cSMA was determined by Western analysis and immunohistochemistry. Simultaneously, fibroblast function was characterized by measuring their capacity to take up triglycerides. Some experiments were performed in the presence of a specific PPARγ antagonist, GW9662. Medium containing fresh chemicals was added daily, and at the end of the experimental period the cells were processed as needed.\nFor Western blotting, cells were lysed using an extraction buffer [10 mM tris (hydroxymethyl) aminomethane (Tris, pH 7.5), 0.25 M sucrose, 1 mM EDTA, 5 mM benzamidine, 2 mM phenylmethylsulfonyl fluoride, and 10 (j.tg/ml each of pepstatin A, aprotinin, and leupeptin], and centrifuged at 140 g for 10 min (4° C.). Equal amounts of the protein (25 μg) from the supernatant were dissolved in electrophoresis sample buffer and were subjected to sodium dodecyl sulfate-polyacrylamide (4%-12% gradient) gel electrophoresis (SDS-PAGE) followed by electrophoretic transfer to a nitrocellulose memane. The nonspecific binding of antibody was blocked by washing with Tris-buffered saline (TBS) containing 0.1% Tween 20 (TBST) and 5% milk for 1 h. The blot was then subjected to two brief washes with TBST plus 0.5% Tween 20, incubated in TBST plus 0.1% Tween 20 and the specific primary antibodies (PPARγ 1:2000, Alexis Biochemicals, San Diego, Calif.; cSMA 1:50,000, Sigma, St. Louis, Mo.: ADRP 1:3000) overnight at 4° C. Blots were then washed in TBST plus 0.1% Tween 20 and then incubated for 1 h in secondary antibody, washed, and developed with a chemiluminescent substrate [enhanced chemiluminescence (ECL); Amersham, Arlington Heights, Ill.] following the manufacturer's protocol. The densities of the specific protein bands were quantified using a scanning densitometer (Eagle Eye II still video system, Stratagene, La Jolla, Calif.)."}, "[13]": {"details": "nicotine 1×10^6 M (so in the source)"}, "[14]": {"details": "7d nicotine-only group, 7 days after nicotine 10^−9 M"}}, "note": "Where two headings read alike, the source gives them in different places.", "data": [{"smiles": "CN1CCCC1c1cccnc1", "note": "(stereo not shown) [nicotine]", "values": [{"measurement": "decrease in triglyceride uptake", "setting": "WI38 cells [1]; nicotine 1×10^−9 M for 24 h", "result": "~30", "unit": "%"}, {"measurement": "decrease in triglyceride uptake", "setting": "WI38 cells [1]; nicotine 1×10^−9 M for 7 days", "result": "~50", "unit": "%"}, {"measurement": "decrease in PTHrP binding to its receptor", "setting": "PTHrP receptor", "result": 30, "unit": "%"}, {"measurement": "increase in alveolar type II cell proliferation vs control group", "setting": "[2]; nicotine 1 mg/kg i.p. once daily to dam, e6 to e20", "result": 2, "unit": "fold"}, {"measurement": "ATII cell proliferation (PCNA and SP-C staining)", "setting": "[2]; nicotine 1 mg/kg in utero, P<0.05, n=4", "result": "almost twofold increase"}, {"measurement": "ATII cell proliferation in lung explants", "setting": "fetal rat lung explants", "result": "significantly increased"}, {"measurement": "[3H]choline incorporation into saturated phosphatidylcholine", "setting": "ATII cells [3]", "result": "significantly increased"}, {"measurement": "choline incorporation", "setting": "ATII cells [4]", "result": "significantly increased"}, {"measurement": "ADRP, lipid droplet and αSMA staining", "setting": "WI38 cells [5]", "result": "marked decreases in ADRP and lipid droplet staining and a marked increase in αSMA staining"}, {"measurement": "triolein uptake", "setting": "WI38 cells [6]", "result": "significant decrease"}, {"measurement": "change in PTHrP receptor mRNA expression", "setting": "WI38 cells [7]; [13]", "result": "40±3", "unit": "%"}, {"measurement": "change in ADRP mRNA expression", "setting": "WI38 cells [7]; [13]", "result": "−47±4", "unit": "%"}, {"measurement": "change in PPAR mRNA expression", "setting": "WI38 cells [7]; [13]", "result": "−37±3", "unit": "%"}, {"measurement": "change in α-SMA mRNA expression", "setting": "WI38 cells [7]; [13]", "result": "+140±5%"}, {"measurement": "change in PTHrP receptor mRNA expression", "setting": "WI38 cells [7]; nicotine 1×10^−9 M", "result": "−33±8", "unit": "%"}, {"measurement": "change in ADRP mRNA expression", "setting": "WI38 cells [7]; nicotine 1×10^−9 M", "result": "−41±8", "unit": "%"}, {"measurement": "change in PPAR mRNA expression", "setting": "WI38 cells [7]; nicotine 1×10^−9 M", "result": "−26±7", "unit": "%"}, {"measurement": "change in α-SMA mRNA expression", "setting": "WI38 cells [7]; nicotine 1×10^−9 M", "result": "+38±4%"}, {"measurement": "lipid droplet and α-SMA staining", "setting": "WI38 cells [8]", "result": "decreased lipid staining and increased -SMA staining"}, {"measurement": "αSMA mRNA expression in whole lung", "setting": "whole lung tissue", "result": "significant increase"}, {"measurement": "PTHrP receptor, PPARγ and ADRP mRNA expression in whole lung", "setting": "whole lung tissue; vs controls, p<0.05", "result": "significant decrease"}, {"measurement": "ATII cell proliferation, direct stimulation in vitro", "setting": "ATII cells [9]", "result": "no effect"}, {"measurement": "[13C]glucose labeling of the acetyl-CoA pool", "setting": "ATII cells [10]; in utero nicotine", "result": "modest increase"}, {"measurement": "de novo palmitate synthesis as a function of total palmitate", "setting": "ATII cells [10]; rat, in vivo", "result": "almost doubled"}, {"measurement": "ribose synthesis via the nonoxidative transketolase pathway", "setting": "ATII cells [10]; rat, in vivo", "result": "significant decrease"}, {"measurement": "ribose synthesis via the oxidative glucose-6-phosphate dehydrogenase pathway", "setting": "ATII cells [10]; rat, in vivo", "result": "significant increase"}, {"measurement": "de novo palmitate synthesis or [13C]glucose labeling of acetyl-CoA", "setting": "ATII cells [11]", "result": "did not result in a significant change"}, {"measurement": "ribose synthesis via the oxidative or the nonoxidative pathway", "setting": "ATII cells [11]", "result": "did not alter"}, {"measurement": "αSMA expression vs untreated controls", "setting": "WI38 cells [12]; 7 days after stopping nicotine (Example 3)", "result": "significantly higher"}, {"measurement": "expression of PTHrP receptor, PPARγ and ADRP vs untreated controls", "setting": "WI38 cells [12]; [14]", "result": "significantly lower"}, {"measurement": "expression of αSMA and calponin vs untreated controls", "setting": "WI38 cells [12]; [14]", "result": "significantly higher"}, {"measurement": "PTHrP receptor expression vs untreated controls", "setting": "WI38 cells [12]; nicotine 10^−9 M 7 days, then 7 days without nicotine (Example 3)", "result": "significantly lower"}, {"measurement": "expression of αSMA and calponin", "setting": "WI38 cells [12]; nicotine 7 days, p<0.001 vs control, n=3", "result": "significant increases"}, {"measurement": "expression of PTHrP receptor, PPARγ and ADRP", "setting": "WI38 cells [12]; nicotine 7 days, vs control, n=3", "result": "significant decreases"}]}]}
